The subject of experiment [1] is B6.Sle1(a+b) mice. The experiment in a line: Suppression of anti-nuclear autoantibody (ANA) production in B6.Sle1(a+b) mice; anti-histone-DNA ANA in sera by ELISA. Format: in vivo, mouse. The conditions noted are these: daily intraperitoneal injection, 75 mg/kg body weight for 4 weeks, sera before, during and after treatment. Here is the method: T0 represents the OD value for measuring the titer of anti-Histone/DNA antibodies before treatment. T represents the OD value for measuring the titer of anti-Histone/DNA antibodies at a time point during or after treatment. Each point represents Mean±SE. Mice in control group were given vehicle (Tricaprylin) only.
To study whether POH can inhibit anti-nuclear autoantibody (ANA) production, the inventors treated B6.Sle1(a+b) mice by daily intraperitoneal injection of POH at a dose of 75 mg/kg body weight for 4 weeks. Sera were collected before, during, and after treatment. Levels of anti-histone-DNA ANA were determined by ELISA.
For orientation: ELISA stands for enzyme-linked immunosorbent assay.

Experiment [2] has as its system ras protein farnesylation. The following applies: has been shown (prior knowledge); cited from earlier work.

`C=C(C)[C@@H]1CC=C(CO)CC1` [POH, Perillyl alcohol]: the “Sle1-mediated anti-histone-DNA ANA production” value in experiment [1] (FIG. 3) is reported as “can be suppressed”; in experiment [1] (FIG. 3, listed as perillyl alcohol (POH)) it was “Inhibitory effect”. Moreover, in experiment [2], the ras protein farnesylation entry is on record as “has been shown to inhibit ras protein farnesylation”.
